# Assay results published in patent US12509454B2, “Thiadiazolyl derivatives” (IDEAYA Biosciences, Inc., priority 2019, dated 2025).
# Molecular target: Pol theta (1-899) (Homo sapiens (Human), UniProt O75417)
# Experiment: Pol theta ATPase activity, NADH oxidation-coupled enzymatic assay
# Type: biochemical
# Settings: Pol theta (1-899) 10 nM, ATP, dT50 ssDNA, absorbance 340 nm, 10-point dilution series; read-out: ATPase NADH coupling:Standard Screening:hPolQ IC50
# How it was run: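 Pol theta (1-899), 10 nM, preincubated 15 min at RT with 10-point compound series in Tris pH 7.80/KCl/MgCl2 buffer, then given 100 μM ATP plus 300 nM dT50 ssDNA with PK/LDH-coupled NADH oxidation. A340 followed for 30 min; rate slopes fitted with a four-parameter model for IC50.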
# Sequence of Pol theta (1-899) (O75417 1-899): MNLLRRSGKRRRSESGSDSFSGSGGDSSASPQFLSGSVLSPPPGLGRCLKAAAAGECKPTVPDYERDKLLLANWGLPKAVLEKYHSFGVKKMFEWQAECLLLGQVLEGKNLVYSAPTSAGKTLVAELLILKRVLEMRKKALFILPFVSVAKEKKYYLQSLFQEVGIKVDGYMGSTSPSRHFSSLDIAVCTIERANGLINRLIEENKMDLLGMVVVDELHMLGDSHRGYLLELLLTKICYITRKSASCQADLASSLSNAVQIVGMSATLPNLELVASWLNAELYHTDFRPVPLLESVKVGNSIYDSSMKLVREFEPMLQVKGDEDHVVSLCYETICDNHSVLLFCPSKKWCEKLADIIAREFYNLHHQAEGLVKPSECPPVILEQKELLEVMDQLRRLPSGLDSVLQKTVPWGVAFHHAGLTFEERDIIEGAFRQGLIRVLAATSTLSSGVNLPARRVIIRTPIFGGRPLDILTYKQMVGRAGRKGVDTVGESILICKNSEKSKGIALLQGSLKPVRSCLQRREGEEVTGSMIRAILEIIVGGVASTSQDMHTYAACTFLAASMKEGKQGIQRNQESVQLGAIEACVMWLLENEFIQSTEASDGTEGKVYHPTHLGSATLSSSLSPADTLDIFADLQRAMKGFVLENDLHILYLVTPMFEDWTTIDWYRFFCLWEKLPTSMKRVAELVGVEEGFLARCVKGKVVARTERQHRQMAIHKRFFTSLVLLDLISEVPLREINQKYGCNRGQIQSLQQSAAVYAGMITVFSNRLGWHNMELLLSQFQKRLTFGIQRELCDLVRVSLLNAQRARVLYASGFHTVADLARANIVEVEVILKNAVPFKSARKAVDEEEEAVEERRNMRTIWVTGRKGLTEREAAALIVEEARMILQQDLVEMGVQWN
row,SMILES,IC50
1,"COc1ccccc1-c1cc(CCC(N)=O)ncc1C(=O)Nc1nnc(OCc2ccc(Cl)cc2)s1 [Example 163, 6-(3-amino-3-oxopropyl)-N-(5-((4-chlorobenzyl)oxy)-1,3,4-thiadiazol-2-yl)-4-(2-methoxyphenyl)nicotinamide]",≤ 200 nM
2,"O=C(Nc1nnc(OCc2ccc(Cl)cc2)s1)c1ccncc1-c1ccccc1OC1CC(O)C1 (stereo not shown) [Example 165, N-(5-((4-chlorobenzyl)oxy)-1,3,4-thiadiazol-2-yl)-3-(2-(3-hydroxycyclobutoxy)phenyl)isonicotinamide]",≤ 200 nM
3,"COc1ccccc1-c1cc(CO)ncc1C(=O)Nc1nnc(OCc2ccc(Cl)cn2)s1 [Example 170, N-[5-[(5-chloropyridin-2-yl)methoxy]-1,3,4-thiadiazol-2-yl]-6-(hydroxymethyl)-4-(2-methoxyphenyl)pyridine-3-carboxamide]",≤ 200 nM
4,"O=C(Nc1nnc(OCc2ccc(Cl)cn2)s1)c1ccncc1N1CCOC2(CC2)C1 [Example 173, N-[5-[(5-chloropyridin-2-yl)methoxy]-1,3,4-thiadiazol-2-yl]-3-[4-oxa-7-azaspiro[2.5]octan-7-yl]pyridine-4-carboxamide]",200 to 500 nM
5,"O=C(Nc1nnc(OCc2ccc(Cl)cc2)s1)c1ccncc1N1C2CCC1COC2 [Example 176, N-[5-[(4-chlorophenyl)methoxy]-1,3,4-thiadiazol-2-yl]-3-[3-oxa-8-azabicyclo[3.2.1]octan-8-yl]pyridine-4-carboxamide]",≤ 200 nM
6,"O=C(Nc1nnc(OCc2ccc(Cl)cn2)s1)c1ccncc1-c1c(F)cccc1OC(F)F [Example 182, N-(5-((5-chloropyridin-2-yl)methoxy)-1,3,4-thiadiazol-2-yl)-3-(2-(difluoromethoxy)-6-fluorophenyl)isonicotinamide]",≤ 200 nM
7,"COc1cccc(F)c1-c1cc(C)ncc1C(=O)Nc1nnc(OCc2ccc(Cl)cc2)s1 [Example 183, N-(5-((4-chlorobenzyl)oxy)-1,3,4-thiadiazol-2-yl)-4-(2-fluoro-6-methoxyphenyl)-6-methylnicotinamide]",≤ 200 nM
8,"COc1cccc(F)c1-c1cc(C)ncc1C(=O)Nc1nnc(OCc2ccc(Cl)cn2)s1 [Example 184, N-(5-((5-chloropyridin-2-yl)methoxy)-1,3,4-thiadiazol-2-yl)-4-(2-fluoro-6-methoxyphenyl)-6-methylnicotinamide]",≤ 200 nM
9,"COc1cccc(F)c1-c1cc(C#N)ncc1C(=O)Nc1nnc(OCc2ccc(Cl)cc2)s1 [Example 185, N-(5-((4-chlorobenzyl)oxy)-1,3,4-thiadiazol-2-yl)-6-cyano-4-(2-fluoro-6-methoxyphenyl)nicotinamide]",≤ 200 nM
10,"COc1cccc(F)c1-c1cc(C#N)ncc1C(=O)Nc1nnc(OCc2ccc(Cl)cn2)s1 [Example 186, N-(5-((5-chloropyridin-2-yl)methoxy)-1,3,4-thiadiazol-2-yl)-6-cyano-4-(2-fluoro-6-methoxyphenyl)nicotinamide]",≤ 200 nM
11,"C[C@H]1COC[C@H](C)N1c1cnccc1C(=O)Nc1nnc(OCc2ccc(Cl)cn2)s1 [Example 187, N-(5-((5-chloropyridin-2-yl)methoxy)-1,3,4-thiadiazol-2-yl)-3-((3S,5S)-3,5-dimethylmorpholino)isonicotinamide]",≤ 200 nM
12,"C[C@@H]1COC[C@@H](C)N1c1cnccc1C(=O)Nc1nnc(OCc2ccc(Cl)cn2)s1 [Example 188, N-(5-((5-chloropyridin-2-yl)methoxy)-1,3,4-thiadiazol-2-yl)-3-((3R,5R)-3,5-dimethylmorpholino)isonicotinamide]",≤ 200 nM
13,"Cc1cc(-c2c(F)cccc2OC(F)F)c(C(=O)Nc2nnc(OCc3ccc(Cl)cc3)s2)cn1 [Example 189, N-(5-((4-chlorobenzyl)oxy)-1,3,4-thiadiazol-2-yl)-4-(2-(difluoromethoxy)-6-fluorophenyl)-6-methylnicotinamide]",≤ 200 nM
14,"Cc1cc(-c2c(F)cccc2OC(F)F)c(C(=O)Nc2nnc(OCc3ccc(Cl)cn3)s2)cn1 [Example 190, N-(5-((5-chloropyridin-2-yl)methoxy)-1,3,4-thiadiazol-2-yl)-4-(2-(difluoromethoxy)-6-fluorophenyl)-6-methylnicotinamide]",≤ 200 nM
15,"COc1ccccc1-c1cnc(C)cc1C(=O)Nc1nnc(OCc2ccc(Cl)cn2)s1 [Example 191, N-[5-[(5-chloropyridin-2-yl)methoxy]-1,3,4-thiadiazol-2-yl]-5-(2-methoxyphenyl)-2-methylpyridine-4-carboxamide]",200 to 500 nM
16,"N#Cc1cc(-c2c(F)cccc2OC(F)F)c(C(=O)Nc2nnc(OCc3ccc(Cl)cc3)s2)cn1 [Example 192, N-(5-((4-chlorobenzyl)oxy)-1,3,4-thiadiazol-2-yl)-6-cyano-4-(2-(difluoromethoxy)-6-fluorophenyl)nicotinamide]",≤ 200 nM
17,"COc1cnccc1-c1cc(C)ncc1C(=O)Nc1nnc(OCc2ccc(Cl)cn2)s1 [Example 194, N-(5-((5-chloropyridin-2-yl)methoxy)-1,3,4-thiadiazol-2-yl)-3′-methoxy-6-methyl-[4,4′-bipyridine]-3-carboxamide]",≤ 200 nM
18,"COc1c(CO)cccc1-c1cc(C)ncc1C(=O)Nc1nnc(OCc2ccc(Cl)cn2)s1 [Example 195, N-[5-[(5-chloropyridin-2-yl)methoxy]-1,3,4-thiadiazol-2-yl]-4-[3-(hydroxymethyl)-2-methoxyphenyl]-6-methylpyridine-3-carboxamide]",≤ 200 nM
19,"Cc1cc(-c2c(C)n[nH]c2C)c(C(=O)Nc2nnc(OCc3ccc(Cl)cn3)s2)cn1 [Example 196, N-(5-((5-chloropyridin-2-yl)methoxy)-1,3,4-thiadiazol-2-yl)-4-(3,5-dimethyl-1H-pyrazol-4-yl)-6methylnicotinamide]",≤ 200 nM
20,"COc1ccccc1-c1cc(C)ncc1C(=O)Nc1nnc(OCCc2ccc(Cl)cn2)s1 [Example 197, N-(5-(2-(5-chloropyridin-2-yl)ethoxy)-1,3,4-thiadiazol-2-yl)-4-(2-methoxyphenyl)-6-methylnicotinamide]",200 to 500 nM

# Now from value to molecule:
row,IC50,SMILES
1,≤ 200 nM,"COc1ccccc1-c1cnccc1C(=O)Nc1nnc(OCc2ccc(Cl)c(Cl)c2)s1 [Example 158, N-[5-[(3,4-dichlorophenyl)methoxy]-1,3,4-thiadiazol-2-yl]-3-(2-methoxyphenyl)pyridine-4-carboxamide]"
2,≤ 200 nM,"COc1c(C#N)cccc1-c1cnccc1C(=O)Nc1nnc(OCc2ccc(Cl)cc2)s1 [Example 159, N-(5-((4-chlorobenzyl)oxy)-1,3,4-thiadiazol-2-yl)-3-(3-cyano-2-methoxyphenyl)isonicotinamide]"
3,≤ 200 nM,"COc1cc(C(=O)Nc2nnc(OCc3ccc(Cl)cc3)s2)c(-c2ccccc2OC)cn1 [Example 160, N-(5-((4-chlorobenzyl)oxy)-1,3,4-thiadiazol-2-yl)-2-methoxy-5-(2-methoxyphenyl)isonicotinamide]"
4,≤ 200 nM,"COc1ccccc1-c1cn2ccnc2cc1C(=O)Nc1nnc(OCc2ccc(Cl)cc2)s1 [Example 161, N-(5-((4-chlorobenzyl)oxy)-1,3,4-thiadiazol-2-yl)-6-(2-methoxyphenyl)imidazo[1,2-a]pyridine-7-carboxamide]"
5,≤ 200 nM,"Cc1n[nH]cc1-c1cnccc1C(=O)Nc1nnc(OCc2ccc(Cl)cc2)s1 [Example 162, N-(5-((4-chlorobenzyl)oxy)-1,3,4-thiadiazol-2-yl)-3-(3-methyl-1H-pyrazol-4-yl)isonicotinamide]"
6,≤ 200 nM,"COc1ccccc1-c1cc(CCC#N)ncc1C(=O)Nc1nnc(OCc2ccc(Cl)cc2)s1 [Example 164, N-[5-[(4-chlorophenyl)methoxy]-1,3,4-thiadiazol-2-yl]-6-(2-cyanoethyl)-4-(2-methoxyphenyl)pyridine-3-carboxamide]"
7,≤ 200 nM,"COc1ccccc1-c1cc(CCO)ncc1C(=O)Nc1nnc(OCc2ccc(Cl)cc2)s1 [Example 166, N-(5-((4-chlorobenzyl)oxy)-1,3,4-thiadiazol-2-yl)-6-(2-hydroxyethyl)-4-(2-methoxyphenyl)nicotinamide]"
8,≤ 200 nM,"O=C(Nc1nnc(OCc2ccc(Cl)cn2)s1)c1cncn1-c1ccccc1OC(F)F [Example 168, N-[5-[(5-chloropyridin-2-yl)methoxy]-1,3,4-thiadiazol-2-yl]-3-[2-(difluoromethoxy)phenyl]imidazole-4-carboxamide]"
9,≤ 200 nM,"Cc1nn(C)cc1-c1cnccc1C(=O)Nc1nnc(OCc2ccc(Cl)cc2)s1 [Example 169, N-[5-[(4-chlorophenyl)methoxy]-1,3,4-thiadiazol-2-yl]-3-(1,3-dimethylpyrazol-4-yl)pyridine-4-carboxamide]"
10,≤ 200 nM,"O=C(Nc1nnc(OCc2ccc(Cl)cc2)s1)c1ccncc1-c1ccccc1CCO [Example 171, N-(5-((4-chlorobenzyl)oxy)-1,3,4-thiadiazol-2-yl)-3-(2-(2-hydroxyethyl)phenyl)isonicotinamide]"
11,≤ 200 nM,"N#Cc1ccc(OC2COC2)c(-c2cnccc2C(=O)Nc2nnc(OCc3ccc(Cl)cc3)s2)c1 [Example 172, N-(5-((4-chlorobenzyl)oxy)-1,3,4-thiadiazol-2-yl)-3-(5-cyano-2-(oxetan-3-yloxy)phenyl)isonicotinamide]"
12,≤ 200 nM,"COc1ccccc1-c1cnccc1C(=O)Nc1nnc(OCc2ccccc2)s1 [Example 174, N-(5-(benzyloxy)-1,3,4-thiadiazol-2-yl)-3-(2-methoxyphenyl)isonicotinamide]"
13,≤ 200 nM,"N#Cc1cc(N2CCOC3(CC3)C2)c(C(=O)Nc2nnc(OCc3ccc(Cl)cc3)s2)cn1 [Example 177, N-[5-[(4-chlorophenyl)methoxy]-1,3,4-thiadiazol-2-yl]-6-cyano-4-[4-oxa-7-azaspiro[2.5]octan-7-yl]pyridine-3-carboxamide]"
14,≤ 200 nM,"COc1ccccc1-c1cnccc1C(=O)Nc1nnc(OCc2cccc3[nH]ncc23)s1 [Example 181, N-[5-(1H-indazol-4-ylmethoxy)-1,3,4-thiadiazol-2-yl]-3-(2-methoxyphenyl)pyridine-4-carboxamide]"
